pIC50: −log10 of the molar value.
Key:
KRAS WT [1] = biological target: T1, KRAS WT (Homo sapiens (Human), UniProt P01116); experiment: KRAS WT Biochemical Assay, BODIPY-GDP Exchange TR-FRET (Example 502; 0.06 nM KRAS WT, 15 nM GDP, 300 nM SOS1, 120-minute incubation); conditions: read-out: KRas HTRF IC50
Outline: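 Biotin-tagged recombinant KRAS WT (0.06 nM) preloaded with 15 nM GDP and Tb-streptavidin, 10 min RT, then exchange started with 300 nM SOS1 plus 300 nM BODIPY-GDP in HEPES pH 7.5 buffer with MgCl2. TR-FRET 520/490 ratio read after 120 min; normalized to DMSO and full-inhibition control; IC50 from 4-parameter fit.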

KRAS WT [2] = biological target: T1, KRAS WT; experiment: KRAS WT Biochemical Assay, BODIPY-GDP Exchange TR-FRET (Example 501; 3 nM KRAS WT, 3 nM SOS1, 60-minute incubation); conditions: read-out: KRas(wt) GDP HTRF IC50
Outline: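 SOS1-mediated exchange assay: 3 nM biotin-KRAS WT with terbium-streptavidin, started with 3 nM SOS1 and 300 nM BODIPY-GDP, HEPES pH 7.5 with MgCl2. TR-FRET (520/490 nm) read after 60 min; normalized to DMSO and full-inhibition control, IC50 from 4-parameter Hill fit.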

KRAS G12D = KRAS G12D (Homo sapiens (Human), UniProt P01116, G12D); experiment: KRAS G12D LoEnz Biochemical Assay, BODIPY-GDP Exchange TR-FRET (SOS1-mediated nucleotide exchange); conditions: read-out: KRas (G12D) GDP HTRF IC50
Chain of KRAS G12D (P01116-2 other isoform, or with tags, fused parts or gaps G12D): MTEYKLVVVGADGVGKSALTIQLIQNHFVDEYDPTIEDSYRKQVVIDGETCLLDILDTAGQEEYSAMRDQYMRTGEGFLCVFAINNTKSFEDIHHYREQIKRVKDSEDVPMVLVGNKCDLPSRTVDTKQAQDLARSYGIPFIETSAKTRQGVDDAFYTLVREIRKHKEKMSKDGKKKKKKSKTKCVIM

T1 sequence (P01116-2 other isoform, or with tags, fused parts or gaps): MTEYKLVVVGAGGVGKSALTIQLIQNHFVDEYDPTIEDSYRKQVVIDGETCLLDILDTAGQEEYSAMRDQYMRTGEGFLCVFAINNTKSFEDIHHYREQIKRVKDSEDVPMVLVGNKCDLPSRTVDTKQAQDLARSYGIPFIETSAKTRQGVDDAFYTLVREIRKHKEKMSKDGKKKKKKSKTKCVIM

Row | Compound | pIC50 (KRAS WT [1]) | pIC50 (KRAS WT [2]) | pIC50 (KRAS G12D)
1 | Cc1c(F)c(N)cc(-c2nc3c4c(nc(OC[C@@]56CCCN5C[C@H](F)C6)nc4c2F)N2C[C@H]4CC[C@H](N4)[C@H]2[C@H](C)O3)c1C(F)(F)F [Compound 6, 2-Fluoro-5-((5S,5aS,6S,9R)-1-fluoro-12-(((2R,7aS)-2-fluorotetrahydro-1H-pyrrolizin-7a(5H)-yl)methoxy)-5-methyl-5a,6,7,8,9,10-hexahydro-5H-4-oxa-3,10a,11,13,14-pentaaza-6,9-methanonaphtho[1,8-ab]heptalen-2-yl)-3-methyl-4-(trifluoromethyl)aniline] | 9.26 | 9.32 | 10.13
2 | C#Cc1c(F)ccc2cc(O)cc(-c3nc4c5c(nc(OC[C@@]67CCCN6C[C@H](F)C7)nc5c3F)N3C[C@H]5CC[C@H](N5)[C@H]3[C@H](C)O4)c12 [Compound 7, 5-Ethynyl-6-fluoro-4-((5S,5aS,6S,9R)-1-fluoro-12-(((2R,7aS)-2-fluorotetrahydro-1H-pyrrolizin-7a(5H)-yl)methoxy)-5-methyl-5a,6,7,8,9,10-hexahydro-5H-4-oxa-3,10a,11,13,14-pentaaza-6,9-methanonaphtho[1,8-ab]heptalen-2-yl)naphthalen-2-ol] | 9.54 | 9.53 | 10.23
3 | Cc1c(F)c(N)cc(-c2nc3c4c(nc(OCCCN5C[C@@H]6C[C@H]5CO6)nc4c2F)N2C[C@H]4CC[C@H](N4)[C@H]2[C@H](C)O3)c1C(F)(F)F [Compound 164, 5-((5S,5aS,6S,9R)-12-(3-((1S,4S)-2-oxa-5-azabicyclo[2.2.1]heptan-5-yl)propoxy)-1-fluoro-5-methyl-5a,6,7,8,9,10-hexahydro-5H-4-oxa-3,10a,11,13,14-pentaaza-6,9-methanonaphtho[1,8-ab]heptalen-2-yl)-2-fluoro-3-methyl-4-(trifluoromethyl)aniline] | 7.51 | – | 9.82
4 | Cc1c(F)c(N)cc(-c2nc3c4c(nc(OCC5(CN6CCO[C@H](C)C6)CC5)nc4c2F)N2C[C@H]4CC[C@H](N4)[C@H]2[C@H](C)O3)c1C(F)(F)F [Compound 168, 2-Fluoro-5-((5S,5aS,6S,9R)-1-fluoro-5-methyl-12-((1-(((R)-2-methylmorpholino)methyl)cyclopropyl)methoxy)-5a,6,7,8,9,10-hexahydro-5H-4-oxa-3,10a,11,13,14-pentaaza-6,9-methanonaphtho[1,8-ab]heptalen-2-yl)-3-methyl-4-(trifluoromethyl)aniline] | 8.77 | – | 9.92
5 | Cc1c(F)c(N)cc(-c2nc3c4c(nc(OCC5(CN6C[C@@H]7C[C@H]6CO7)CC5)nc4c2F)N2C[C@H]4CC[C@H](N4)[C@H]2[C@H](C)O3)c1C(F)(F)F [Compound 169, 5-((5S,5aS,6S,9R)-12-((1-(((1S,4S)-2-Oxa-5-azabicyclo[2.2.1]heptan-5-yl)methyl)cyclopropyl)methoxy)-1-fluoro-5-methyl-5a,6,7,8,9,10-hexahydro-5H-4-oxa-3,10a,11,13,14-pentaaza-6,9-methanonaphtho[1,8-ab]heptalene-2-yl)-2-fluoro-3-methyl-4-(trifluoromethyl)aniline] | 8.64 | – | 10.00
6 | Cc1c(F)c(N)cc(-c2nc3c4c(nc(OCC5(CN6C[C@H]7C[C@@H]6CO7)CC5)nc4c2F)N2C[C@H]4CC[C@H](N4)[C@H]2[C@H](C)O3)c1C(F)(F)F [Compound 170, 5-((5S,5aS,6S,9R)-12-((1-(((1R,4R)-2-Oxa-5-azabicyclo[2.2.1]heptan-5-yl)methyl)cyclopropyl)methoxy)-1-fluoro-5-methyl-5a,6,7,8,9,10-hexahydro-5H-4-oxa-3,10a,11,13,14-pentaaza-6,9-methanonaphtho[1,8-ab]heptalene-2-yl)-2-fluoro-3-methyl-4-(trifluoromethyl)aniline] | 8.67 | – | 10.05
7 | Cc1c(F)c(N)cc(-c2nc3c4c(nc(OCC5(CN6CCO[C@H](CF)C6)CC5)nc4c2F)N2C[C@H]4CC[C@H](N4)[C@H]2[C@H](C)O3)c1C(F)(F)F [Compound 171, 2-Fluoro-5-((5S,5aS,6S,9R)-1-fluoro-12-((1-(((S)-2-(fluoromethyl)morpholino)methyl)cyclopropyl)methoxy)-5-methyl-5a,6,7,8,9,10-hexahydro-5H-4-oxa-3,10a,11,13,14-pentaaza-6,9-methanonaphtho[1,8-ab]heptalen-2-yl)-3-methyl-4-(trifluoromethyl)aniline] | 7.86 | – | 9.60
8 | Cc1c(F)c(N)cc(-c2nc3c4c(nc(OCC5(CN6CCO[C@@H](CF)C6)CC5)nc4c2F)N2C[C@H]4CC[C@H](N4)[C@H]2[C@H](C)O3)c1C(F)(F)F [Compound 172, 2-Fluoro-5-((5S,5aS,6S,9R)-1-fluoro-12-((1-(((R)-2-(fluoromethyl)morpholino)methyl)cyclopropyl)methoxy)-5-methyl-5a,6,7,8,9,10-hexahydro-5H-4-oxa-3,10a,11,13,14-pentaaza-6,9-methanonaphtho[1,8-ab]heptalen-2-yl)-3-methyl-4-(trifluoromethyl)aniline] | 7.95 | – | 9.62
9 | Cc1c(F)c(N)cc(-c2nc3c4c(nc(OCC5(CN6CC(F)C6)CC5)nc4c2F)N2C[C@H]4CC[C@H](N4)[C@H]2[C@H](C)O3)c1C(F)(F)F [Compound 173, 2-Fluoro-5-((5S,5aS,6S,9R)-1-fluoro-12-((1-((3-fluoroazetidin-1-yl)methyl)cyclopropyl)methoxy)-5-methyl-5a,6,7,8,9,10-hexahydro-5H-4-oxa-3,10a,11,13,14-pentaaza-6,9-methanonaphtho[1,8-ab]heptalene-2-yl)-3-methyl-4-(trifluoromethyl)aniline] | 8.23 | – | 10.10
10 | Cc1c(F)c(N)cc(-c2nc3c4c(nc(OCC5(CN6CC7(COC7)C6)CC5)nc4c2F)N2C[C@H]4CC[C@H](N4)[C@H]2[C@H](C)O3)c1C(F)(F)F [Compound 174, 5-((5S,5aS,6S,9R)-12-((1-((2-Oxa-azaspiro[3.3]heptan-6-yl)methyl)cyclopropyl)methoxy)-1-fluoro-5-methyl-5a,6,7,8,9,10-hexahydro-5H-4-oxa-3,10a,11,13,14-pentaaza[6,9]methanonaphtho[1,8-ab]heptalene-2-yl)-2-fluoro-3-methyl-4-(trifluoromethyl)aniline] | 8.52 | – | 8.47
11 | Cc1c(F)c(N)c(F)c(-c2nc3c4c(nc(OC[C@@]56CCCN5C[C@H](F)C6)nc4c2F)N2C[C@H]4CC[C@H](N4)[C@H]2[C@H](C)O3)c1CC(F)F [Compound 175, 4-(2,2-Difluoroethyl)-2,6-difluoro-3-((5S,5aS,6S,9R)-1-fluoro-12-(((2R,7aS)-2-fluorotetrahydro-1H-pyrrolizin-7a(5H)-yl)methoxy)-5-methyl-5a,6,7,8,9,10-hexahydro-5H-4-oxa-3,10a,11,13,14-pentaaza-6,9-methanonaphtho[1,8-ab]heptalen-2-yl)-5-methylaniline] | 6.97 | – | 8.47
12 | Cc1cc2[nH]ncc2c(-c2nc3c4c(nc(OC[C@@]56CCCN5C[C@H](F)C6)nc4c2F)N2C[C@H]4CC[C@H](N4)[C@H]2[C@H](C)O3)c1Cl [Compound 176, (5S,5aS,6S,9R)-2-(5-Chloro-6-methyl-1H-indazol-4-yl)-1-fluoro-12-(((2R,7aS)-2-fluorotetrahydro-1H-pyrrolizin-7a(5H)-yl)methoxy)-5-methyl-5a,6,7,8,9,10-hexahydro-5H-4-oxa-3,10a,11,13,14-pentaaza-6,9-methanonaphtho[1,8-ab]heptalene] | 6.09 | – | 8.55
13 | Cc1cc(-c2nc3c4c(nc(OC[C@@]56CCCN5C[C@H](F)C6)nc4c2F)N2C[C@H]4CC[C@H](N4)[C@H]2[C@H](C)O3)c(F)c(N)n1 [Compound 177, 3-Fluoro-4-((5S,5aS,6S,9R)-1-fluoro-12-(((2R,7aS)-2-fluorotetrahydro-1H-pyrrolizin-7°(5H)-yl)methoxy)-5-methyl-5°,6,7,8,9,10-hexahydro-5H-4-oxa-3,10°,11,13,14-pentaaza-6,9-methanonaphtho[1,8-ab]heptalen-2-yl)-6-methylpyridin-2-amine] | 4.93 | – | 6.90
14 | CCc1cccc2nc(N)cc(-c3nc4c5c(nc(OC[C@@]67CCCN6C[C@H](F)C7)nc5c3F)N3C[C@H]5CC[C@H](N5)[C@H]3[C@H](C)O4)c12 [Compound 179, 5-Ethyl-4-((5S,5aS,6S,9R)-1-fluoro-12-(((2R,7aS)-2-fluorotetrahydro-1H-pyrrolizin-7a(5H)-yl)methoxy)-5-methyl-5a,6,7,8,9,10-hexahydro-5H-4-oxa-3,10a,11,13,14-pentaaza-6,9-methanonaphtho[1,8-ab]heptalene-2-yl)quinolin-2-amine] | 6.18 | – | 8.18
15 | Cc1c(F)c(N)cc(-c2nc3c4c(nc(OC[C@@]56CCCN5C[C@H](F)C6)nc4c2F)N2C[C@H]4CC[C@H](N4)[C@H]2[C@H](C)O3)c1S(C)(=O)=O [Compound 180, 2-Fluoro-5-((5S,5aS,6S,9R)-1-fluoro-12-(((2R,7aS)-2-fluorotetrahydro-1H-pyrrolizin-7a(5H)-yl)methoxy)-5-methyl-5a,6,7,8,9,10-hexahydro-5H-4-oxa-3,10a,11,13,14-pentaaza-6,9-methanonaphtho[1,8-ab]heptalene-2-yl)-3-methyl-4-(methylsulfonyl)aniline] | 5.56 | – | 7.76

From patent publication US20240025919A1, “AZA-TETRACYCLIC OXAZEPINE COMPOUNDS AND USES THEREOF” (Genentech, Inc., priority 2022, published 2024)
